Results reported in patent US5968987A, “Halofantrine free base for the treatment of malaria and compositions” (priority 1994, dated 1999).
Structures can show the parent of a compound that is named as a salt.

What was measured:
malarial infections = conditions: in words, background; cited from earlier work
[1] = in words, background; cited from earlier work
[2] = in words, background; cited from earlier work; remark: listed apart in the source
physchem = assay type: physicochemical
Description: The following data and examples serve to illustrate the invention.

## CCCCN(CCCC)CCC(O)c1cc2c(Cl)cc(Cl)cc2c2cc(C(F)(F)F)ccc12 (centres unmarked) [halofantrine hydrochloride]
Malarial infections
  effectiveness in the treatment of malarial infections: very effective
[1]
  absorption after oral administration: poor and often variable
[2]
  aqueous and lipid solubility: poor
physchem; aqueous solutions, solubility in aqueous solutions
  solubility: ~1 µg/mL
physchem; peanut oil, organic solvent or mixture, solubility in a triglyceride lipid such as peanut oil
  solubility: < 1000 µg/mL

## CCCCN(CCCC)CCC(O)c1cc2c(Cl)cc(Cl)cc2c2cc(C(F)(F)F)ccc12 (centres unmarked) [amorphous halofantrine free base]
physchem; peanut oil, organic solvent or mixture, miscible/soluble with peanut oil
  solubility: > 400000 µg/mL

## CCCCN(CCCC)CCC(O)c1cc2c(Cl)cc(Cl)cc2c2cc(C(F)(F)F)ccc12 (centres unmarked) [halofantrine free base]
physchem
  lipid solubility and miscibility: unexpectedly high

## CCCCN(CCCC)CCC(O)c1cc2c(Cl)cc(Cl)cc2c2cc(C(F)(F)F)ccc12 (centres unmarked) [crystalline halofantrine free base]
physchem; triglycerides, organic solvent or mixture, solubility in triglycerides
  solubility: > 80000 µg/mL
